Results: patent US11701345B2, “Car activator agents for cyclophosphamide-based treatments of cancer” (UNIVERSITY OF MARYLAND, BALTIMORE, priority 2017, dated 2023)
“Also recorded” adds a separate entry of the source.

Assays:
[1] = tested on: SU-DHL-4 cells; assay: Hepatocyte/lymphoma co-culture with CHOP: cancer cell death, viability, caspase-3; format: cell-based, human
Protocol: HPH were cultured in collagen-coated 12-well plates and pretreated with vehicle control (0.1% DMSO) or hCAR activator (1 mmol/L) for 24 hours. The wells were then separated with […] polycarbonate membrane inserts (Sigma-Aldrich). A total of 0.5×10^6 SU-DHL-4 cells suspended in supplemented Williams' Medium E were transferred into the insert chamber with a final volume of 2 mL/well. In separate coculture experiments, HPH were replaced with either WT or CAR-KO HepaRG cells. The cocultures were exposed to designated concentrations of the chemotherapy drugs in CHOP in the presence or absence of hCAR activator for various time intervals, as indicated.
(§1) Homogenate proteins from treated HPH, H9c2 or HepaRG cells were resolved on NuPAGE Novex Bis-Tris 4% to 12% gels (Life Technologies) and electrophoretically transferred onto immobilon-P polyvinylidene difluoride membranes. Membranes were incubated with specific antibodies against human CAR (Perseus Proteomics), cleaved caspase-3 (Cell Signaling Technology), or g-H2AX (Millipore), diluted 1:1,000, 1:1,000, and 1:400, respectively. b-Actin was used to normalize protein loading. Following incubation with horseradish peroxidase goat antimouse or anti-rabbit IgG antibody, membranes were developed using SuperSignal West Pico Chemiluminescent Substrate (Thermo Scientific). Western blot signals were quantified by densitometry using ImageJ software from the National Institutes of Health.
HPHs and H9c2 rat cardiomyocytes were seeded at 7.5×10^4 cells per well in 96-well plates. HPH were cultured for 24 hours before treatment with hCAR activator (1 mmol/L) or vehicle control (0.1% DMSO), followed by treatment with the chemotherapy drugs included in CHOP at a range of concentrations. Culture medium containing CHOP drugs and metabolites was exchanged between the cell types at pre-determined time points. A typical 3-[4,5-dimethylthiazol-2-yl]-2,5 diphenyl tetrazolium bromide (MTT) assay was carried out as described previously (21). Cell viability was expressed as the percentage of vehicle control (0.1% DMSO). Cocultured cells were assembled and treated as described above. The viability of the SU-DHL-4 cells was determined at selected time points with a Cellometer Auto T4 (Nexcelom Biosciences) using trypan blue exclusion.

[2] = tested on: H9c2 cells; assay: CHOP cytotoxicity in side-toxic H9c2 cells; format: cell-based, rat; conditions: FIGS. 10A-10C, 11A-11F
Protocol: as §1
HPHs and H9c2 rat cardiomyocytes were seeded at 7.5×10^4 cells per well in 96-well plates. […] Culture medium containing CHOP drugs and metabolites was exchanged between the cell types at pre-determined time points. […] Cell viability was expressed as the percentage of vehicle control (0.1% DMSO). […] The viability of the SU-DHL-4 cells was determined at selected time points with a Cellometer Auto T4 (Nexcelom Biosciences) using trypan blue exclusion.

[3] = tested on: EL4-derived xenograft; assay: EL4-derived xenograft in hCAR transgenic mice treated with CHOP; format: in vivo, mouse; conditions: hCAR-TG mice, compared with vehicle, CITCO and CHOP controls; FIGS. 13-14
Protocol: The effects of the novel hCAR activator e.g. CITCO on the CHOP based anticancer therapy has been examined in EL4-derived xenograft hCAR transgenic mouse model (FIG. 12). The tumor volume reduction was measured to determine the effects of hCAR activator on the CHOP treatment upon xenograft tumor model in mouse.

Structure (SMILES): Clc1ccc(-c2nc3sccn3c2/C=N/OCc2ccc(Cl)c(Cl)c2)cc1 [CITCO, (E)-6-(4-chlorophenyl)imidazo[2,1-b]thiazole-5-carbaldehyde O-(3,4-dichlorobenzyl) oxime]
- effect on CHOP anticancer activity (cancer cell death) ([1]; hepatocyte/lymphoma co-culture, added to CHOP, FIGS. 10B-C): enhances CHOP-mediated cytoxicity; also recorded: potentiates the beneficial effects of CHOP in causing cancer cell death
- Caspase-3 expression on addition to CHOP ([1]; lymphoma cells, FIGS. 11A-11F): induction of apoptosis protein caspase-3; also recorded: dose dependent response of Caspase-3 expression
- effect on CHOP-mediated cytotoxicity in H9c2 cells [2]: not H9c2 cells
- effect on therapeutic effects of CHOP (tumor volume, tumor mass) [3]: potentiate the therapeutic effects of the CHOP regimen
